Test results taken from ChEMBL document CHEMBL6153105, “MDN-0057 to MDN-0060, a Family of Broad-Spectrum Antibiotics against Gram-Negative Pathogens Produced by Ophiosphaerella korrae” (2025).
Values after ≈ are worked out from the molar mass of the structure shown.

Experiments:
Type in all cases: functional
[1] = test system: Pseudomonas aeruginosa; experiment: Antibacterial activity against Pseudomonas aeruginosa ATCC 27853 incubated for 20 hrs
[2] = test system: Acinetobacter baumannii; experiment: Antibacterial activity against Acinetobacter baumannii MB5973 incubated for 20 hrs
[3] = test system: Escherichia coli; experiment: Antibacterial activity against Escherichia coli ATCC 25922 incubated for 20 hrs

MIC [1] [µg/mL] | MIC [2] [µg/mL] | MIC [3] [µg/mL] | SMILES
16 (≈ 43.4 µM) | 0.5 (≈ 1.36 µM) |  | [C-]#[N+]C(=C)[C@](Cc1ccc(OC)cc1)([N+]#[C-])[C@H]1C[C@@H](O)CC[C@@H]1OC(C)=O
2 (≈ 5.2 µM) | 0.25 (≈ 0.65 µM) | 16 (≈ 41.6 µM) | [C-]#[N+]C(=C)[C@](Cc1ccc(OC)cc1)([N+]#[C-])[C@H]1C[C@@H](O)CC[C@@H]1OC(=O)CO
64 (≈ 167 µM) | 0.25 (≈ 0.654 µM) | 16 (≈ 41.8 µM) | [C-]#[N+]C(=C)[C@](Cc1ccc(OC)cc1)([N+]#[C-])[C@H]1C[C@@H](O)C=C[C@@H]1OC(=O)CO
32 (≈ 87.3 µM) | 1 (≈ 2.73 µM) |  | [C-]#[N+]C(=C)[C@](Cc1ccc(OC)cc1)([N+]#[C-])[C@H]1C[C@@H](O)C=C[C@@H]1OC(C)=O
 | 2.5 (≈ 3.04 µM) |  | CO[C@H]1/C=C/O[C@@]2(C)Oc3c(C)c(O)c4c(O)c(c(/C=N/N5CCN(C)CC5)c(O)c4c3C2=O)NC(=O)/C(C)=C\C=C\[C@H](C)[C@H](O)[C@@H](C)[C@@H](O)[C@@H](C)[C@H](OC(C)=O)[C@@H]1C [RIFAMPIN]

SMILES | MIC [1] [µg/mL] | MIC [2] [µg/mL] | MIC [3] [µg/mL]
C[C@H]1[C@H](NC(=O)/C(=N\OC(C)(C)C(=O)O)c2csc(N)n2)C(=O)N1S(=O)(=O)O [AZTREONAM] |  |  | 0.25 (≈ 0.574 µM)
